Data as given in ChEMBL document CHEMBL1781897, “Synthesis, biological evaluation of prenylflavonoids as vasorelaxant and neuroprotective agents” (Bioorg Med Chem Lett, 2009).

What was measured:
PC-12 [1] = assay: Neuroprotective activity against oxygen-glucose deprivation-induced cell injury in rat PC12 cells assessed as cell viability at 1 uM; assay type: functional; conditions: read-out: Activity
Aorta [2] = assay: Vasorelaxant activity in rat aortic ring assessed as inhibition of phenylephrine-induced contraction relative to control; assay type: functional
Aorta [3] = assay: Vasorelaxant activity in rat aortic ring assessed as inhibition of phenylephrine-induced contraction; assay type: functional, tissue-based
PC-12 [4] = assay: Neuroprotective activity against oxygen-glucose deprivation-induced cell injury in rat PC12 cells assessed as cell viability; assay type: functional, cell-based
PC-12 [5] = assay: Neuroprotective activity against oxygen-glucose deprivation-induced cell injury in rat PC12 cells assessed as cell viability at 30 uM; assay type: functional; conditions: read-out: Activity

SMILES | viability at 1 µM (PC-12 [1]) | Emax (Aorta [2]) | EC50 (Aorta [3]) | Activity (PC-12 [4]) | viability at 30 µM (PC-12 [5])
CC(C)=CCc1c(O)cc(O)c2c1O/C(=C\c1ccc(O)cc1O)C2=O | 90.4% | 30.5% |  |  | 
CC(C)=CCc1c(O)cc(O)c(C(=O)/C=C/c2ccc(O)cc2)c1O [DEMETHYLXANTHOHUMOL] | 86.7% | 81.4% | 8.5 µM |  | 
CC(C)=CCc1c(O)cc(O)c2c1OC(c1ccc(O)cc1O)CC2=O (racemic) | 94.8% | 94.9% | 9.3 µM | Dose-dependent effect | 
COc1cc(C2CC(=O)c3c(O)cc(O)c(CC=C(C)C)c3O2)ccc1O (centres undefined) | 94% |  |  | Dose-dependent effect | 
CC(C)=CCc1c(O)cc(O)c2c(=O)cc(-c3ccc(O)c(O)c3)oc12 | 91.5% | 62.5% |  |  | 
CC(C)=CCc1c(O)cc(O)c2c(=O)cc(-c3ccc(O)c(O)c3O)oc12 | 88.6% |  |  |  | 
CC(C)=CCc1c(O)cc(O)c2c(=O)cc(-c3ccc(O)cc3O)oc12 | 93.5% | 91.5% | 176 µM | Dose-dependent effect | 
O=c1c(O)c(-c2ccc(O)c(O)c2)oc2cc(O)cc(O)c12 [QUERCETIN] |  | 91.3% |  |  | 
CC(C)=CCc1c(O)cc(O)c2c1OC(c1cccc(Br)c1)CC2=O (centres undefined) | 88.1% |  |  |  | 
COc1cc(C2CC(=O)c3c(O)cc(O)c(CC=C(C)C)c3O2)cc(OC)c1OC (centres undefined) | 89.1% | 66.3% | 25 µM |  | 
CC(C)=CCc1c(O)cc(O)c2c1O/C(=C\c1ccc(O)cc1)C2=O | 81.6% | 74.5% |  |  | 
COc1cc([C@@H]2CC(=O)c3c(O)cc(O)cc3O2)ccc1O (racemic) [HOMOERIODICTYOL] | 89.1% | 74.9% | 82 µM |  | 
CC1=NN(c2ccccc2)C(=O)C1 [EDARAVONE] |  |  |  |  | 93.2%
CC(C)=CCc1c(O)cc(O)c2c1OC(c1ccc(O)cc1)CC2=O (centres undefined) [SOPHORAFLAVANONE B] | 89.3% | 101% | 72.7 µM |  | 
CC(C)=CCc1c(O)cc(O)c2c1OC(c1ccc(O)c(O)c1O)CC2=O (centres undefined) | 90.3% | 69.7% |  |  | 
